Measurements from US9732075B2, “Benzimidazole-proline derivatives” (IDORSIA PHARMACEUTICALS LTD, priority 2012, dated 2017).

How the values were obtained:
human orexin-1 receptor = human orexin-1 receptor (Homo sapiens (Human), UniProt O43613); assay: In vitro assay: intracellular calcium measurements (FLIPR), antagonistic activity; type: cell-based; details: CHO cells expressing human orexin-1 receptor, orexin-A agonist, geometric mean, read-out: IC50 Ox1
Procedure, shortened: (§1)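 IC50s are geometric means, possibly reference-normalized, from FLIPR calcium peaks in CHO cells bearing human orexin-1 or orexin-2 receptor. Fluo-4 AM/probenecid-loaded cells received antagonist for 120 min before challenge with orexin-A (final 3 nM, ~EC70), with responses compared against vehicle controls.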

human orexin-2 receptor = human orexin-2 receptor (Homo sapiens (Human), UniProt O43614); assay: as above; type: cell-based; details: CHO cells expressing human orexin-2 receptor, orexin-A agonist, geometric mean, read-out: IC50 Ox2
Chain of human orexin-2 receptor (O43614 whole entry): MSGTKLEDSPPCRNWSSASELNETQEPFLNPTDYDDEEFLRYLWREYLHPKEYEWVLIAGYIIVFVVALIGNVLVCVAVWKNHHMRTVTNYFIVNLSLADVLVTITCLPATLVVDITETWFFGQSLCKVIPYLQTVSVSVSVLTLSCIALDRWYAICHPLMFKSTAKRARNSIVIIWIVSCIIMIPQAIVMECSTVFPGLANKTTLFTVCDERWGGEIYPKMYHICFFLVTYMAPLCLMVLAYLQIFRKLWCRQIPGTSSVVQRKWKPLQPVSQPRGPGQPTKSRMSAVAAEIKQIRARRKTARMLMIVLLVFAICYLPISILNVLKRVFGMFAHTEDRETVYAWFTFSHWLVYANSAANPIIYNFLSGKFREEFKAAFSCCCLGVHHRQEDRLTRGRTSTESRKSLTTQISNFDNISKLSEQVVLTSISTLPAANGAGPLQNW
Procedure, shortened: as §1

Chain of human orexin-1 receptor (O43613 whole entry): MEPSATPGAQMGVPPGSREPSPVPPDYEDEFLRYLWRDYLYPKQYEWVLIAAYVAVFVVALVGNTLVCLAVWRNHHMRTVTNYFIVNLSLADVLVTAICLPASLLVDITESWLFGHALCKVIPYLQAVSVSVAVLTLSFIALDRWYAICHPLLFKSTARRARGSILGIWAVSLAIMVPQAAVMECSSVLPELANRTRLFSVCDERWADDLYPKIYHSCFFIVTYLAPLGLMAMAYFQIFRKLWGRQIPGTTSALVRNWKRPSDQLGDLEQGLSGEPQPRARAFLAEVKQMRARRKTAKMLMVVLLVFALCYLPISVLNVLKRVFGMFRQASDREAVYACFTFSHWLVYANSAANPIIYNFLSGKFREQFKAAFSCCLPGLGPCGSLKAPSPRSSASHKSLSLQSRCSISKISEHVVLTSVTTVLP

| Structure (SMILES) | IC50 (human orexin-1 receptor) [nM] | IC50 (human orexin-2 receptor) [nM] |
| --- | --- | --- |
| COC(=O)c1cccc2nc([C@@H]3[C@@H](C)CCN3C(=O)c3nc(C)sc3-c3cccc(Cl)c3)[nH]c12 [Ex. 4.13] | 26 | 4910 |
| CSc1ccc2nc([C@@H]3CCCN3C(=O)c3cc(C)ccc3-n3nccn3)[nH]c2c1 [Ex. 1.17] | 97 | 8 |
| Cc1nc(C(=O)N2CCCC2c2nc3cc(Cl)c(Cl)cc3[nH]2)c(-c2ccccc2)s1 (stereo not shown) [Ex. 1.119] | 27 | 77 |
| Cc1cc2[nH]c([C@@H]3[C@@H](C)CCN3C(=O)c3c(-c4ccccc4)ccc(C)c3F)nc2cc1Cl [Ex. 4.115] | 7 | 754 |
| Cc1nc(C(=O)N2CCCC2c2nc3cc(C(F)(F)F)ccc3[nH]2)c(-c2cccc(Cl)c2)s1 (stereo not shown) [Ex. 1.94] | 42 | 414 |
| CO[C@@H]1C[C@@H](c2nc3ccc(Cl)c(C)c3[nH]2)N(C(=O)c2cc(F)ccc2-n2nccn2)C1 [Ex. 3.18] | 97 | 4 |
| CO[C@H]1CN(C(=O)c2c(F)cccc2-n2nccn2)C(C)(c2nc3c(C)c(Cl)ccc3[nH]2)C1 (stereo partly shown) [Ex. 3.42] | 193 | 395 |
| CSc1cccc2nc([C@@H]3CCCN3C(=O)c3nc(C4CC4)sc3-c3ccc(C)cc3)[nH]c12 [Ex. 1.68] | 7 | 8 |
| Cc1c(Cl)ccc2[nH]c([C@@H]3[C@@H](C)CCN3C(=O)c3cc(C#N)ccc3-c3ccccc3)nc12 [Ex. 4.166] | 2 | 568 |
| Cc1ccc(-n2nccn2)c(C(=O)N2CC[C@H](C)[C@H]2c2nc3c(C)cc(Cl)cc3[nH]2)c1F [Ex. 4.99] | 13 | 981 |
| CSc1ccc2nc([C@@H]3CCCN3C(=O)c3cncnc3-c3ccc(Cl)c(Cl)c3)[nH]c2c1 [Ex. 1.52] | 737 | 121 |
| Cc1nc(C(=O)N2CC[C@H](C)[C@H]2c2nc3cc(C(F)(F)F)ccc3[nH]2)c(-c2cccc(Cl)c2)s1 [Ex. 4.9] | 2 | 2780 |
| Cc1ccc(-c2sc(C)nc2C(=O)N2CC[C@H](C)[C@H]2c2nc3cc(C(F)(F)F)ccc3[nH]2)cc1 [Ex. 4.140] | 7 | 2170 |
| Cc1ccc2[nH]c([C@@H]3[C@@H](C)CCN3C(=O)c3nc(C)sc3-c3ccccc3)nc2c1 [Ex. 4.5] | 29 | 3190 |
| CCc1ccc(-c2sc(C)nc2C(=O)N2CCC[C@H]2c2nc3ccc(OC)cc3[nH]2)cc1 [Ex. 1.24] | 850 | 81 |
| Cc1c(Cl)ccc2[nH]c([C@@H]3[C@@H](C)CCN3C(=O)c3cc(C(F)(F)F)ccc3-c3ccccc3)nc12 [Ex. 4.170] | 11 | 1430 |
| COc1ccc(-n2nccn2)c(C(=O)N2CCC[C@@]2(C)c2nc3cc(C)c(C)cc3[nH]2)c1 [Ex. 5.54] | 33 | 20 |
| Cc1ccc(-n2nccn2)c(C(=O)N2CC[C@H](C)[C@H]2c2nc3cc(Cl)cc(C)c3[nH]2)c1 [Ex. 4.39] | 14 | 315 |
| Cc1cc2nc([C@@H]3[C@@H](C)CCN3C(=O)c3cc(Cl)ccc3-n3nccn3)[nH]c2cc1C [Ex. 4.81] | 4 | 79 |
| Cc1cc2[nH]c([C@@H]3[C@@H](C)CCN3C(=O)c3cc(Cl)ccc3-n3nccn3)nc2cc1Cl [Ex. 4.71] | 7 | 133 |
| Cc1nc(C(=O)N2CC[C@H](C)[C@H]2c2nc3cc(Cl)c(C)cc3[nH]2)c(-c2cccc(Cl)c2)s1 [Ex. 4.15] | 2 | 670 |
| Cc1cc(C(=O)N2CCC[C@@]2(C)c2nc3c(C)c(Cl)ccc3[nH]2)c(-n2nccn2)cc1C [Ex. 5.41] | 2 | 2 |
| CO[C@H]1CN(C(=O)c2nc(C)ccc2-n2nccn2)C(C)(c2nc3c(C)c(Cl)ccc3[nH]2)C1 (stereo partly shown) [Ex. 3.56] | 18 | 37 |
| Cc1ccc(C(=O)N2CC[C@H](C)[C@H]2c2nc3c(C)c(Cl)ccc3[nH]2)c(-c2ccccn2)c1 [Ex. 4.167] | 13 | 144 |

The remaining lines, values ahead:

| IC50 (human orexin-1 receptor) [nM] | IC50 (human orexin-2 receptor) [nM] | Structure (SMILES) |
| --- | --- | --- |
| 13 | 402 | Cc1c(Cl)ccc2[nH]c([C@]3(C)CCCN3C(=O)c3nc(-c4ccccc4Cl)sc3-c3ccc(F)cc3)nc12 [Ex. 5.256] |
| 15 | 78 | Cc1nc(C(=O)N2CCC[C@@]2(C)c2nc3c(F)c(F)ccc3[nH]2)c(-c2cccc(Cl)c2)s1 [Ex. 5.207] |
| 10 | 136 | COc1cccc(-c2sc(C)nc2C(=O)N2CCC[C@@]2(C)c2nc3cc(OC(F)(F)F)ccc3[nH]2)c1 [Ex. 5.247] |
| 200 | 154 | COc1cc2nc([C@]3(C)CCCN3C(=O)c3cc(F)ccc3-n3nccn3)[nH]c2cc1OC [Ex. 5.65] |
| 56 | 43 | Cc1ccc2[nH]c([C@]3(C)CCCN3C(=O)c3ccccc3-c3ccccc3F)nc2c1C [Ex. 5.121] |
| 22 | 35 | Cc1ccc(-c2cccc(F)c2)c(C(=O)N2CCC[C@@]2(C)c2nc3cc(C(F)(F)F)c(Cl)cc3[nH]2)c1 [Ex. 5.153] |
| 85 | 114 | Cc1cccc2[nH]c([C@]3(C)CCCN3C(=O)c3cc(Cl)ccc3-n3nccn3)nc12 [Ex. 5.49] |
| 13 | 129 | Cc1ccc(-n2nccn2)c(C(=O)N2CCC[C@@]2(C)c2nc3cc(Br)ccc3[nH]2)c1 [Ex. 5.8] |
| 20 | 219 | Cc1ccc(-n2cccn2)c(C(=O)N2CCC[C@@]2(C)c2nc3cc(F)c(Br)cc3[nH]2)c1 [Ex. 5.128] |
| 21 | 35 | CCn1c([C@]2(C)CCCN2C(=O)c2cc(C)ccc2-c2cccc(OC)c2)nc2cc(C)c(C)cc21 [Ex. 7.44] |
| 14 | 3 | C=C1C[C@@H](c2nc3ccc(Cl)c(C)c3[nH]2)N(C(=O)c2nc(C)sc2-c2ccc(Br)cc2)C1 [Ex. 6.116] |
| 8 | 3 | C=C1C[C@@H](c2nc3c(Cl)cccc3[nH]2)N(C(=O)c2nc(C)sc2-c2ccc(C)c(C)c2)C1 [Ex. 6.51] |
| 5 | 20 | C=C1CN(C(=O)c2nc(N(C)C)sc2-c2cccc(Cl)c2)C(C)(c2nc3cc(OC)ccc3[nH]2)C1 (stereo not shown) [Ex. 6.152] |
| 15 | 1 | C=C1C[C@@H](c2nc3cccc(C)c3[nH]2)N(C(=O)c2nc(C)sc2-c2ccc(F)c(Br)c2)C1 [Ex. 6.110] |
| 239 | 103 | C=C1C[C@@H](c2nc3cc(Cl)c(C(F)(F)F)cc3[nH]2)N(C(=O)c2cc(OC(F)(F)F)ccc2-n2nccn2)C1 [Ex. 6.185] |
| 12 | 83 | Cc1cc(C(=O)N2CCC[C@@]2(C)c2nc3c(F)c(F)ccc3[nH]2)c(-n2nccn2)cc1C [Ex. 5.199] |
| 6 | 16 | Cc1ccc(-n2nccn2)c(C(=O)N2CCC[C@@]2(C)c2nc3cc(C)c(C)cc3[nH]2)c1 [Ex. 5.10] |
| 107 | 43 | Cc1cccc2[nH]c([C@]3(C)CCCN3C(=O)c3ccccc3-n3nccn3)nc12 [Ex. 5.52] |

| IC50 (human orexin-1 receptor) [nM] | IC50 (human orexin-2 receptor) [nM] | Structure (SMILES) |
| --- | --- | --- |
| 146 | 80 | C=C1C[C@@H](c2nc3cc(OC)ccc3[nH]2)N(C(=O)c2nc(C3CC3)sc2-c2ccc(C)cc2)C1 [Ex. 6.35] |
| 24 | 355 | Cc1ccc(-n2cccn2)c(C(=O)N2CCC[C@@]2(C)c2nc3cc(C(F)(F)F)ccc3[nH]2)c1 [Ex. 5.175] |
| 91 | 351 | C[C@@]1(c2nc3cc(C(F)(F)F)ccc3[nH]2)CCCN1C(=O)c1ccccc1-n1nccn1 [Ex. 5.167] |
| 410 | 19 | C=C1C[C@@H](c2nc3cc(OC)ccc3[nH]2)N(C(=O)c2nc(C)sc2-c2ccc(Br)cc2)C1 [Ex. 6.22] |
| 49 | 75 | Cc1c(Cl)ccc2[nH]c([C@]3(C)CCCN3C(=O)c3ccccc3-n3cccn3)nc12 [Ex. 5.42] |
| 141 | 150 | COc1cc2nc([C@]3(C)CCCN3C(=O)c3c(-n4nccn4)ccc(C)c3F)[nH]c2cc1OC [Ex. 5.68] |
| 40 | 4590 | Cc1ccccc1-c1nc(C(=O)N2CCC[C@@]2(C)c2nc3cc(Cl)c(C(F)(F)F)cc3[nH]2)c(-c2ccc(F)cc2)s1 [Ex. 5.286] |
| 426 | 104 | COc1cc2nc([C@]3(C)CCCN3C(=O)c3nc(C)ccc3-n3cccn3)[nH]c2cc1OC [Ex. 5.83] |
| 38 | 232 | Cc1ccc(C(=O)N2CCC[C@@]2(C)c2nc3cc(OC(F)(F)F)ccc3[nH]2)c(-c2ccccn2)c1 [Ex. 5.240] |
| 113 | 411 | Cc1ccc(-n2nccn2)c(C(=O)N2CCC[C@@]2(C)c2nc3cc(F)c(Br)cc3[nH]2)c1F [Ex. 5.124] |
| 59 | 90 | C=C1CN(C(=O)c2ccccc2-c2ccc(C)c(C)c2)C(C)(c2nc3cc(OC)ccc3[nH]2)C1 (stereo not shown) [Ex. 6.149] |
| 58 | 18 | C=C1C[C@@H](c2nc3cc(Cl)c(C(F)(F)F)cc3[nH]2)N(C(=O)c2cc(F)ccc2-n2nccn2)C1 [Ex. 6.176] |
| 217 | 1290 | Cc1ccc(-c2ccc(F)cc2C)c(C(=O)N2CCC[C@@]2(C)c2nc3cc(C)c(C)cc3[nH]2)c1 [Ex. 5.91] |
| 2 | 4 | CCn1c([C@]2(C)CCCN2C(=O)c2nc(C)sc2-c2ccccc2)nc2c(C)c(Cl)ccc21 [Ex. 7.8] |
| 44 | 740 | COc1ccc(OC)c2[nH]c([C@]3(C)CCCN3C(=O)c3cc(C)ccc3-n3nccn3)nc12 [Ex. 5.31] |
| 20 | 15 | C=C1C[C@@H](c2nc3cc(OC)ccc3[nH]2)N(C(=O)c2nc(C3CC3)sc2-c2cccc(Br)c2)C1 [Ex. 6.28] |
| 26 | 173 | Cc1ccc(-c2ccccc2)c(C(=O)N2CCC[C@@]2(C)c2nc3cc(OC(F)(F)F)ccc3[nH]2)c1 [Ex. 5.236] |
